# Data taken from patent US20260207704A1, “STAPLED PEPTIDES AND METHODS THEREOF” (priority 2022, published 2026).
# Test system: DLD1 reporter
# Experiment: reporter assay (DLD1 reporter assay)
# Type: cell-based
# Conditions: read-out: DLD1 4% Abs IC50; DLD1 4%
# Source text: Various technologies can be utilized for characterizing and/or assessing provided technologies (e.g., agents (e.g., various peptides), compositions, methods, etc.) in accordance with the present disclosure. As described herein, in some embodiments, a useful technology is or comprises fluorescence polarization. In some embodiments, a useful technology assesses LogP or LogD. In some embodiments, a useful technology is or comprises a CHI LogD assay. In some embodiments, a useful technology assesses solubility. In some embodiments, a useful technology is or comprises NanoBRET. In some embodiments, a useful technology is or comprises a reporter assay (e.g., DLD1 reporter assay). In some embodiments, a useful technology is or comprises alphascreen. Certain useful protocols are described in the Examples. Those skilled in the art appreciate that suitable adjustments may be made to such protocols, e.g., according to specific conditions, agents, purposes, etc.
# Various technologies can be utilized to assess technologies of the present disclosure. For example, in some embodiments, solubility, LogD, interactions with targets, etc. of various agents such as stapled peptides were assessed using technologies described in WO 2022/261257 (e.g., those in its Examples). In some embodiments, solubility, shake flask LogD, and binding to beta-catenin were assessed. In some embodiments, an assay for assessing interactions, e.g., with beta-catenin, was fluorescence polarization as described in WO 2022/261257. In some embodiments, an assay was Nano-BRET target engagement assay that assessed beta-catenin/TCF4 engagement as described in WO 2022/261257. In some embodiments, an assay was a reporter assay as reported in Example 4 of WO 2022/261257. In some embodiments, an assay was a COLO320DM proliferation assay as reported in Example 4 of WO 2022/261257.
row,SMILES,IC50 [nM]
1,"CC(=O)N1CCC[C@]12CC=CCCCC1(CCCC=CCCCOC(=O)N3CC[C@@]4(C3)NC(=O)[C@H](CCCCNC(=O)CC[C@@H](C(=O)NC(C)(C)C(N)=O)NC(=O)[C@H](Cc3csc5ccccc35)NC(=O)[C@H](Cc3ccccc3C(F)(F)F)NC4=O)NC(=O)[C@H](Cc3ccccc3)NC(=O)[C@H](C)NC(=O)[C@H](C)NC(=O)[C@H](CN(CC(=O)O)CC(F)(F)F)NC(=O)[C@H](CC(=O)O)NC1=O)NC(=O)[C@H](CC(C)(C)C)NC(=O)[C@H](CC(=O)O)NC2=O (single isomer, unassigned) [I-127, Ac-PL3-Asp-Npg-B5-Asp-TfeGA-Ala-Ala-Phe-Lys*3-PyrS2-2F3MeF-BztA-GlnR*3-Aib-NH2]",1000 to 5000
2,"CC(=O)N1CCC[C@]12CC=CCCCC1(CCCC=CCCCOC(=O)N3CC[C@@]4(C3)NC(=O)[C@H](CCCCNC(=O)CC[C@@H](C(=O)N[C@@H](CC(C)C)C(=O)N[C@@H](CO)C(N)=O)NC(=O)[C@H](Cc3csc5ccccc35)NC(=O)[C@H](Cc3ccccc3C(F)(F)F)NC4=O)NC(=O)[C@H](Cc3ccccc3)NC(=O)[C@H](C)NC(=O)C3(CCC3)NC(=O)[C@H](Cc3cccc(C(=O)O)c3)NC(=O)[C@H](CC(=O)O)NC1=O)NC(=O)[C@H](CC(C)(C)C)NC(=O)[C@H](CC(=O)O)NC2=O (relative stereo) [I-140, Ac-PL3-Asp-Npg-B5-Asp-3COOHF-Cbg-Ala-Phe-Lys*3-PyrS2-2F3MeF-BztA-GlnR*3-Leu-Ser-NH2]",≤ 1000
3,"CC(=O)N1CCC[C@]12CC=CCCCC1(CCCC=CCCCOC(=O)N3CC[C@@]4(C3)NC(=O)[C@H](CCCCNC(=O)CC[C@@H](C(=O)N[C@@H](C)C(N)=O)NC(=O)[C@H](Cc3csc5ccccc35)NC(=O)[C@H](Cc3ccccc3C(F)(F)F)NC4=O)NC(=O)[C@H](Cc3ccccc3)NC(=O)[C@H](C)NC(=O)[C@H](CC(C)(C)C)NC(=O)[C@H](Cc3cccc(C(=O)O)c3)NC(=O)[C@H](CC(=O)O)NC1=O)NC(=O)[C@H](CC(C)(C)C)NC(=O)[C@H](CC(=O)O)NC2=O (single isomer, unassigned) [I-99, Ac-PL3-Asp-Npg-B5-Asp-3COOHF-Npg-Ala-Phe-Lys*3-PyrS2-2F3MeF-BztA-GlnR*3-Ala-NH2]",≤ 1000
4,"CC(=O)N1CCC[C@]12CC=CCCCC1(CCCC=CCCCOC(=O)N3CC[C@@]4(C3)NC(=O)[C@H](CCCCNC(=O)CC[C@@H](C(=O)NC(C)(C)C(N)=O)NC(=O)[C@H](Cc3csc5ccccc35)NC(=O)[C@H](Cc3ccccc3C(F)(F)F)NC4=O)NC(=O)[C@H](Cc3ccccc3)NC(=O)[C@H](C)NC(=O)[C@H](C)NC(=O)[C@H](CN(CC(=O)O)CC(F)(F)F)NC(=O)[C@H](CC(=O)O)NC1=O)NC(=O)[C@H](CC(C)(C)C)NC(=O)[C@H](CC(=O)O)NC2=O (single isomer, unassigned) [I-126, Ac-PL3-Asp-Npg-B5-Asp-TfeGA-Ala-Ala-Phe-Lys*3-PyrS2-2F3MeF-BztA-GlnR*3-Aib-NH2]",1000 to 5000
5,"CC(=O)N1CCC[C@]12CC=CCCCC1(CCCC=CCCCOC(=O)N3CC[C@@]4(C3)NC(=O)[C@H](CCCCNC(=O)CC[C@@H](C(=O)N[C@@H](CC(C)C)C(=O)N[C@@H](CO)C(N)=O)NC(=O)[C@H](Cc3csc5ccccc35)NC(=O)[C@H](Cc3ccccc3C(F)(F)F)NC4=O)NC(=O)[C@H](Cc3ccccc3)NC(=O)[C@H](C)NC(=O)C3(CCCC3)NC(=O)[C@H](Cc3cccc(C(=O)O)c3)NC(=O)[C@H](CC(=O)O)NC1=O)NC(=O)[C@H](CC(C)(C)C)NC(=O)[C@H](CC(=O)O)NC2=O (relative stereo) [I-141, Ac-PL3-Asp-Npg-B5-Asp-3COOHF-CyLeu-Ala-Phe-Lys*3-PyrS2-2F3MeF-BztA-GlnR*3-Leu-Ser-NH2]",≤ 1000
6,"CC(=O)N1CCC[C@]12CC=CCCCC1(CCCC=CCCCOC(=O)N3CC[C@@]4(C3)NC(=O)[C@H](CCCCNC(=O)CC[C@@H](C(=O)N[C@@H](C)C(N)=O)NC(=O)[C@H](Cc3csc5ccccc35)NC(=O)[C@H](Cc3ccsc3)NC4=O)NC(=O)[C@H](Cc3ccccc3)NC(=O)[C@H](C)NC(=O)C(C)(C)NC(=O)[C@H](Cc3cccc(C(=O)O)c3)NC(=O)[C@H](CC(=O)O)NC1=O)NC(=O)[C@H](CC(C)(C)C)NC(=O)[C@H]([C@H](C)O)NC2=O (relative stereo) [I-163, Ac-PL3-aThr-Npg-B5-Asp-3COOHF-Aib-Ala-Phe-Lys*3-PyrS2-3Thi-BztA-GlnR*3-Ala-NH2]",> 5000
7,"CC(=O)N1CCC[C@]12CC=CCCCC1(CCCC=CCCCOC(=O)N3CC[C@@]4(C3)NC(=O)[C@H](Cc3cn(nn3)CCCC[C@@H](C(N)=O)NC(=O)[C@H](Cc3csc5ccccc35)NC(=O)[C@H](Cc3ccsc3)NC4=O)NC(=O)[C@H](Cc3ccccc3)NC(=O)[C@H](C)NC(=O)[C@H](C)NC(=O)[C@H](Cc3cccc(C(=O)O)c3)NC(=O)[C@H](CC(=O)O)NC1=O)NC(=O)[C@H](CC(C)(C)C)NC(=O)[C@H](CC(=O)O)NC2=O (stereo partly drawn) [I-24, Ac-PL3-Asp-Npg-B5-Asp-3COOHF-Ala-Ala-Phe-sAla*3-PyrS2-3Thi-BztA-TriAzLys*3-NH2]",1000 to 5000
8,"CC(=O)N1CCC[C@]12CC=CCCCC1(CCCC=CCCCOC(=O)N3CC[C@@]4(C3)NC(=O)[C@H](CCCCN(C(C)C)C(=O)CCC[C@@H](C(=O)N[C@@H](C)C(N)=O)NC(=O)[C@H](Cc3csc5ccccc35)NC(=O)[C@H](Cc3ccsc3)NC4=O)NC(=O)[C@H](Cc3ccccc3)NC(=O)[C@H](C)NC(=O)[C@H](C)NC(=O)[C@H](Cc3cccc(C(=O)O)c3)NC(=O)[C@H](CC(=O)O)NC1=O)NC(=O)[C@H](CC(C)(C)C)NC(=O)[C@H](CC(=O)O)NC2=O (relative stereo) [I-187, Ac-PL3-Asp-Npg-B5-Asp-3COOHF-Ala-Ala-Phe-iPrLys*3-PyrS2-3Thi-BztA-hGlnR*3-Ala-NH2]",> 5000
9,"CC(=O)N1CCC[C@]12CC=CCCCC1(CCCC=CCCCOC(=O)N3CC[C@@]4(C3)NC(=O)[C@H](CCCCNC(=O)CC[C@@H](C(=O)N[C@H](C(N)=O)C(C)C)NC(=O)[C@H](Cc3csc5ccccc35)NC(=O)[C@H](Cc3ccccc3C(F)(F)F)NC4=O)NC(=O)[C@H](Cc3ccccc3)NC(=O)[C@H](C)NC(=O)[C@H](C)NC(=O)[C@H](CN(CC(=O)O)CC(F)(F)F)NC(=O)[C@H](CC(=O)O)NC1=O)NC(=O)[C@H](CC(C)(C)C)NC(=O)[C@H](CC(=O)O)NC2=O (relative stereo) [I-129, Ac-PL3-Asp-Npg-B5-Asp-TfeGA-Ala-Ala-Phe-Lys*3-PyrS2-2F3MeF-BztA-GlnR*3-Val-NH2]",1000 to 5000
10,"CC(=O)N1CCC[C@]12CC=CCCCC1(CCCC=CCCCOC(=O)N3CC[C@@]4(C3)NC(=O)[C@H](CCCCNC(=O)CC[C@@H](C(=O)N[C@@H](C)C(N)=O)NC(=O)[C@H](Cc3csc5ccccc35)NC(=O)[C@H](Cc3ccccc3C(F)(F)F)NC4=O)NC(=O)[C@H](Cc3ccccc3)NC(=O)[C@H](C)NC(=O)[C@H](C(C)C)NC(=O)[C@H](CN(CC(=O)O)CC(F)(F)F)NC(=O)[C@H](CC(=O)O)NC1=O)NC(=O)[C@H](CC(C)(C)C)NC(=O)[C@H](CC(=O)O)NC2=O (single isomer, unassigned) [I-125, Ac-PL3-Asp-Npg-B5-Asp-TfeGA-Val-Ala-Phe-Lys*3-PyrS2-2F3MeF-BztA-GlnR*3-Ala-NH2]",1000 to 5000

# Same assay, conditions: read-out: DLD1 4% Abs IC50; DLD1 reporter, 4%
row,SMILES,IC50 [nM]
1,"CC(=O)N1CCC[C@]12CC=CCCCC1(CCCC=CCCCOC(=O)N3CC[C@@]4(C3)NC(=O)[C@H](Cc3cn(nn3)CCCC[C@@H](C(=O)N[C@@H](C)C(N)=O)NC(=O)[C@H](Cc3csc5ccccc35)NC(=O)[C@H](Cc3ccsc3)NC4=O)NC(=O)[C@H](Cc3ccccc3)NC(=O)[C@H](C)NC(=O)[C@H](C)NC(=O)[C@H](Cc3cccc(C(=O)O)c3)NC(=O)[C@H](CC(=O)O)NC1=O)NC(=O)[C@H](CC(C)(C)C)NC(=O)[C@H](CC(=O)O)NC2=O (stereo partly drawn) [I-338, Ac-PL3-Asp-Npg-B5-Asp-3COOHF-Ala-Ala-Phe-sAla*3-PyrS2-3Thi-BztA-TriAzLys*3-Ala-NH2]",≤ 1000
2,"CC(=O)N1CCC[C@]12CC=CCCCC1(CCCC=CCCCOC(=O)N3CC[C@@]4(C3)NC(=O)[C@H](CCCCNC(=O)CC[C@@H](C(=O)N[C@@H](CCC(=O)O)C(=O)N[C@@H](C)C(N)=O)NC(=O)[C@H](Cc3csc5ccccc35)NC(=O)[C@H](Cc3ccsc3)NC4=O)NC(=O)[C@H](Cc3ccccc3)NC(=O)[C@H](C)NC(=O)C(C)(C)NC(=O)[C@H](Cc3cccc(C(=O)O)c3)NC(=O)[C@H](CC(=O)O)NC1=O)NC(=O)[C@H](CC(C)(C)C)NC(=O)[C@H](CC(=O)O)NC2=O (relative stereo) [I-342, Ac-PL3-Asp-Npg-B5-Asp-3COOHF-Aib-Ala-Phe-Lys*3-PyrS2-3Thi-BztA-GlnR*3-Glu-Ala-NH2]",≤ 1000
3,"CC(=O)N1CCC[C@]12CC=CCCCC1(CCCC=CCCCOC(=O)N3CC[C@@]4(C3)NC(=O)[C@H](Cc3cn(nn3)CCCC[C@@H](C(=O)N[C@@H](C)C(N)=O)NC(=O)[C@H](Cc3csc5ccccc35)NC(=O)[C@H](Cc3ccsc3)NC4=O)NC(=O)[C@H](Cc3ccccc3)NC(=O)[C@H](C)NC(=O)C(C)(C)NC(=O)[C@H](Cc3cccc(C(=O)O)c3)NC(=O)[C@H](CC(=O)O)NC1=O)NC(=O)[C@H](CC(C)(C)C)NC(=O)[C@H](CC(=O)O)NC2=O (stereo partly drawn) [I-336, Ac-PL3-Asp-Npg-B5-Asp-3COOHF-Aib-Ala-Phe-sAla*3-PyrS2-3Thi-BztA-TriAzLys*3-Ala-NH2]",1000 to 5000
